From publication PMC9181987, “Disclosing the Potential of Fluorinated Ionic Liquids as Interferon-Alpha 2b Delivery Systems” (Nanomaterials, 2022)

Assays:
IFN-α 2b [1] = target: T1, IFN-α 2b (Homo sapiens, UniProt P01563); experiment: Microscale thermophoresis (MST) binding affinity of FILs with labelled IFN-α 2b; details: for Kd: labelled IFN-α 2b 2.7 μM, 5 mM NaH2PO4 pH 7.4, 25 °C, ± = Kd confidence of the fitting
T1 construct: purchased Sigma-Aldrich SRP4595; host or cells: E. coli
Protocol: Several dilution series of 16 samples of 20 μL were prepared in triplicate for each studied system. All the solutions were prepared in the buffer of the protein, 5 mM of NaH2PO4 (pH = 7.4), and PCR tubes. In the first tube (1 out 16) 20 μL of FIL stock solution was added at twofold the maximum concentration defined for each assay. In the remaining 15 tubes, 10 μL of buffer was added, followed by the series dilution of the FIL. […] The selected concentrations cover the range where the distinct CACs are formed in each FIL. The excitation power was determined by a pre-test and set to 20% whereas the MST power was set to medium (standard). The assays were executed in standard capillaries and triplicates. The results were processed using the MO.Affinity Analysis v2.3 software (NanoTemper Technologies, Munich, Germany).
In the process of labelling, commonly, one amine per protein is labelled, statistically distributing the position of the dye. […] As explained in the experimental section, in each run of MST, a maximum concentration is chosen and is consecutively diluted in 16 capillaries.

IFN-α 2b [2] = target: T1, IFN-α 2b; experiment: Intrinsic fluorescence spectroscopy of IFN-α 2b with FILs (λmax shift, Stern–Volmer quenching); format: binding
Protocol: The concentrations were chosen to cover the range where the different aggregates of the FILs are formed. Samples, equilibrated for 30 min at room temperature, and 400 μL of each solution were transferred to a quartz cuvette of 10 mm pathlength and excited at 280 nm, collecting the fluorescence intensity in a wavelength range of 300 to 450 nm. The width of the excitation and emission slit was set to 5 nm for both cases. The spectra of FIL solutions (blanks) were discounted to the spectra of FIL + protein samples to avoid any possible effect of FIL concentration increment in the fluorescence intensity.
A very well-known equation, the Stern–Volmer, was used to characterize the quenching occurring in this region. This equation characterizes the collisional quenching that can occur when the excited state of the fluorophore is disabled due to contact with another molecule (quencher), without chemical alteration. Therefore, the collisional quenching is described by:(11) F0/F=1+K[Q]=1+kqτ0[Q] where F0 and F are the fluorescence intensities of the fluorophore in the absence and presence of the quencher, respectively, K is the Stern–Volmer quenching constant, kq is the biomolecular quenching constant, τ0 is the unquenched lifetime, and [Q] is the quencher concentration. […] This value gives information on the sensitivity of the fluorophore to a quencher.

[3] = Dynamic light scattering: aggregate size and polydispersity index; format: physicochemical; details: 150 mM NaH2PO4, 25°C
Protocol: These concentrations were chosen to comprise two different aggregates of each FIL, above the 1st CAC and the 3rd CAC. […] Therefore, 20 μL was transferred into a quartz cell of 10 mm pathlength and measured at 25 °C.
Moreover, the polydispersity index (PdI) was obtained by DLS which determines the heterogeneity of the sample in the function of the size.

[4] = design: method as in doi:10.5772/INTECHOPEN.96336, doi:10.1016/j.molliq.2022.119285, PMID 25580898; details: cited from earlier work
[5] = cited from earlier work

T1 sequence (P01563 24-188): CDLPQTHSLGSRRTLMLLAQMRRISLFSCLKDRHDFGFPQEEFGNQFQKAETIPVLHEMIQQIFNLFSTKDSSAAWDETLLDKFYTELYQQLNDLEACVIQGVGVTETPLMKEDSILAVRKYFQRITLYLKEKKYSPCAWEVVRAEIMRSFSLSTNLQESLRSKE

| Structure (SMILES) | binding to IFN-α 2b (MST) (IFN-α 2b [1]; four runs, maximum concentrations 15, 35, 70, 375 mM) | Stern–Volmer quenching constant K (IFN-α 2b [2]; IFN-α 2b 20 μg/mL, region ~14 mM to ~110 mM FIL, 5 mM NaH2PO4 pH 7.4, excitation 280 nm) | red shift of λmax (IFN-α 2b [2]; concentration close to the 3rd CAC, IFN-α 2b 20 μg/mL) | red shift of λmax (IFN-α 2b [2]; concentrations above 384 mM, IFN-α 2b 20 μg/mL) | biomolecular quenching constant kq (IFN-α 2b [2]; from K and τ0 of IFN-α 2b) | Polydispersity index (PdI) ([3]; 29.8 mM FIL) | Polydispersity index (PdI) ([3]; 248.0 mM FIL) | miscibility in water [4] | toxicity [5] | Kd (IFN-α 2b [1]; assay 70 − 2.1 × 10^−3 mM FIL) | Kd (IFN-α 2b [1]; assay 375 − 1.1 × 10^−2 mM FIL) |
| --- | --- | --- | --- | --- | --- | --- | --- | --- | --- | --- | --- |
| C[N+](C)(C)CCO.O=S(=O)([O-])C(F)(F)C(F)(F)C(F)(F)C(F)(F)F [[N1112(OH)][C4F9SO3], (2-Hydroxyethyl)trimethylammonium perfluorobutanesulfonate] | binding only occurs for the runs where concentrations were above the 2nd and 3rd CAC | 0.00195 mM⁻¹ | 3 nm | up to 8 nm | 6.61e+08 M⁻¹ s⁻¹ | 0.784 | 0.543 | full miscibility in water | negligible toxicity |  |  |
| O=S(=O)(O)C(F)(F)C(F)(F)C(F)(F)C(F)(F)F [[N1112(OH)][C4F9SO3], (2-Hydroxyethyl)trimethylammonium perfluorobutanesulfonate] |  |  |  |  |  |  |  |  |  | 0.000597 mM | 54.7 ± 36.9 mM |
